Assay: Control of loss of volatile components: amounts in the AI patch after storage, by gas chromatography
Assay type: physicochemical
Details: 12 wks, device with in situ seal
Method: A transdermal hormone delivery device was prepared comprising an internal backing layer, an AI layer, and a release liner. […] The device also comprised an overlay comprising a polyurethane […] backing, which is able to absorb large amounts of the volatile excipients, DMSO and ethyl lactate, an acrylic PSA coated onto the polyurethane foam, and a PIB PSA coated on top of the acrylic PSA. […] The release liner was a Mylar polyester film coated with a fluoropolymer release coating. […] The devices were placed in a 25° C. or 40° C. oven. After 6 weeks and 12 weeks, devices were removed from the oven and the active section of each device was separated from the overlay. […] (12 weeks exposure to 40° C. is intended to simulate 18 months exposure to room temperature (25° C.)).

CCCCCCCCCCCCOC(=O)C(C)O (centres unmarked) [Lauryl Lactate, lauryl lactate]
Amount in the AI patch (40° C.): 9.20 wt % | Amount in the AI patch (room temp): 9.10 wt %

From patent US8747888B2, “Dermal delivery device with in situ seal” (Agile Therapeutics, Inc., priority 2007, dated 2014)
